From patent publication US11718609B2, “Heparanase inhibitors and use thereof” (Beta Therapeutics Pty Ltd, priority 2016, dated 2023)
One block for each compound: values may come before it.

Experiments:
[1] = target: Recombinant human active heparanase (Homo sapiens (Human), UniProt Q9Y251); assay: Heparanase inhibition assay (colorimetric, fondaparinux substrate, WST-1 detection); format: biochemical; conditions: for IC50: average ± SEM, direct comparison to OGT_2115, read-out: Average IC50 (μM ± SEM), heparanase enzyme inhibition
Chain of Recombinant human active heparanase (Q9Y251 158-543): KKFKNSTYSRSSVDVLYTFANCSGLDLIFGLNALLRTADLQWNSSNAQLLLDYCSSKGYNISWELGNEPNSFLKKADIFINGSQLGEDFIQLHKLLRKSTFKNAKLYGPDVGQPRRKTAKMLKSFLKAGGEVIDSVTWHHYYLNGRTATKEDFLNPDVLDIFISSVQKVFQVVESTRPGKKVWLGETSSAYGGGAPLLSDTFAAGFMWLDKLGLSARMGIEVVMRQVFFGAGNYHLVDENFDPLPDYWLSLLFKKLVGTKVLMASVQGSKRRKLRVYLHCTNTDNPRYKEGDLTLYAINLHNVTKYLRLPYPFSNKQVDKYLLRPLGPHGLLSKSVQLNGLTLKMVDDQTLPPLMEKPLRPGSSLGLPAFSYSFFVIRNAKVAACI
Chain of Recombinant human active heparanase (Q9Y251 36-109): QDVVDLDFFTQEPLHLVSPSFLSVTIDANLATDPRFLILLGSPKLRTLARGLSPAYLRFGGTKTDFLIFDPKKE
Method: Recombinant human active heparanase derived from Chinese hamster ovary cells was from R&D Systems. […] Following initiation of the reaction by addition of fondaparinux, the plate was sealed with adhesive film and incubated at 37° C. for 20-24 h. […] For the enzymatic assays, test compounds were dissolved and added to the assay at varying concentrations to calculate the level of inhibition.
Heparanase inhibition activity of various compounds of the invention was determined using standard methods.

C57BL6J mice = assay: Photo-oxidative damage of the retina, retinal function by electroretinography (ERG); conditions: intravitreal injection 1 μL of 200 μM, 5 days photo-oxidative damage
Excerpt: Significant trends in data points were ascertained using the one-way or two-way analysis of variance (ANOVA) to determine statistical significance (p<0.05) that is indicated by asterisks (*).
C57BL6J mice were born and raised in 12:12 hrs light:dark cycle of 5 lux in individually vented cages, with free access to food and water. Age-matched adult mice (8-10 weeks) were randomly assigned to light damage and dim-reared control (non-light damage) groups. Animals of the light damage group were continuously exposed to 100 k lux white LED light for 1, 3, 5 and 7 days. […] Dim-reared control animals were also pupil dilated twice each day, but were returned to dim cyclic light (12:12 hrs light:dark, 5 lux light).
During bright-light exposure, animals were housed in plastic boxes (two per box), with free access to food and water. The floors of the cages were coated with a reflective Perspex surface and illuminated by a 100-W 65000 k natural white LED (high CRI LED, Yuji, Beijing) mounted 18 cm above the plastic boxes. The LED light has an emission spectrum which more closely resembles daylight than halogen or incandescent bulbs. […] Animals were provided with bedding, food and water during the time course of light exposure, and their behaviour was monitored daily. […]

db/db mice [2] = assay: Insulin content of pancreatic islets in db/db mice (anti-insulin staining, morphometric analysis); format: in vivo, mouse; conditions: 50 mg/kg daily IP
Method: FIG. 5. Insulin content in pancreas sections in db/db mice a model of Type 2 diabetes. Mice were treated daily with 50 mg/kg PI-88 IP from 4 weeks of age. Onset of clinical diabetes was determined by measuring urine glucose twice weekly with Multistix reagent strips and confirmed by measuring non-fasting blood glucose levels in tail vein blood using a MediSense glucometer with hyperglycemia defined as 2 consecutive blood glucose readings of 16 mmol/l or greater. Insulin was detected by anti-insulin antibody staining.
The db/db mouse has defective leptin signalling resulting from a point mutation in the leptin receptor gene. Plasma insulin levels become elevated very early in life (10-14 days of age), and the affected animals are obese by the time they are 3-4 weeks old. The animals are insulin resistant, hypertriglyceridemic, and have impaired glucose tolerance.
db/db mice were treated with saline or 50 mg/kg of PI-88 by daily intraperitoneal injection. At the cessation of treatment pancreatic islets were isolated and stained for insulin and the level of insulin expression assessed by quantitative morphometric analyses.

db/db mice [3] = assay: Intra-islet heparan sulfate content in db/db mice (Alcian blue staining, morphometric analysis); format: in vivo, mouse; conditions: 50 mg/kg daily IP
Method: FIG. 6. Intra-islet HS content in pancreas sections in treated db/db mice. Mice were treated daily with 50 mg/kg PI-88 IP from 4 weeks of age. Onset of clinical diabetes was determined by measuring urine glucose twice weekly with Multistix reagent strips and confirmed by measuring non-fasting blood glucose levels in tail vein blood using a MediSense glucometer with hyperglycemia defined as 2 consecutive blood glucose readings of 16 mmol/l or greater. Islet HS was detected by Alcian blue staining.
db/db mice were treated with saline or 50 mg/kg of PI-88 daily by intraperitoneal injection. At the cessation of treatment pancreatic islets were isolated and stained with alcian blue to visualise heparan sulfate and the heparan sulfate content of the islets was assessed by quantitative morphometric analyses.

[4] = cited from earlier work

Compound: COc1cc2nc(N3CCN(C(=O)C4COc5ccccc5O4)CC3)nc(N)c2cc1OC (stereo not drawn) [doxazosin, reference compound]
- heparanase inhibition (in words) [1]: inhibits heparanase

Compound: COc1cc2nc(NCCNC(=O)c3nnc(-c4ccccc4)o3)nc(N)c2cc1OC.Cl [BT2172]
- ERG a-wave and b-wave responses versus control (PBS) (C57BL6J mice): higher a- and b-wave responses than the control (PBS) group
- retinal function (ERG) (C57BL6J mice): maintained retinal function

Compound: COc1cc2nc(-c3cccc4cccnc34)nc(NCCc3ccccc3)c2cc1OC [BT2164]
- IC50 [1]: 3.13 ± 0.72 µM

Compound: PI-88
- expression of insulin in islets (db/db mice [2]): increased compared to the saline treated db/db mice and is near to the level of insulin expression in the wild-type mice
- islet heparan sulfate levels (db/db mice [3]): increased compared to the saline treated db/db mice and are near to the levels of heparan sulfate in the islets of wild-type mice
- half-life [4]: approximately 30 minutes

The remaining lines, values ahead:

- IC50 [1]: 4 ± 0.09 µM
Compound: COc1cc2nc(NCCNC(=O)c3nnc(-c4cc5ccccc5[nH]4)o3)nc(N)c2cc1OC [BT2169]

- IC50 [1]: 3.64 ± 0.62 µM
Compound: COc1cc2nc(-c3cccc4cccnc34)nc(NCCNC(=O)c3nnc(-c4ccccc4)o3)c2cc1OC [BT2187]
